System: regulatory and catalytic subunits of the cAMP dependent protein kinase A (PKA)
Test: PKA regulatory/catalytic subunit interaction monitored in living cells via VSVG RII-β-PARC (bait) and mCherry-cat-α (prey), TIRFM
Assay type: cell-based
Details: mCherry-cat-α prey, within seconds upon addition
Text: FIG. 8 Monitoring protein reaction dynamics inside individual cells. A: Domain structures of bait-PARCs to measure PKA subunit interactions. B: A bait-PARC containing the regulatory domain RII-β of PKA was co-expressed with the cytosolic prey protein (mCherry-cat- ? to monitor their interaction dynamics inside living cells. Left: Recruitment of the prey to bait microstructures before and after pharmacological perturbation. Right: Derived prey recruitment kinetics (Iso: Isoproterenol; Prop: Propranolol; F/I: forskolin+IBMX; see Supplementary Methods for details). Scale bar: 5 μm. c: Two distinct regulatory domains on bait-PARCs were co-expressed together with the prey protein mCherry-cat- ? . Left: Image of a representative experiment depicting cells grown on a DNA-immobilized antibody array. The checkerboard pattern of antibodies is overlayed with magenta (anti-HA) or cyan (anti-VSVG) circles. Right: The recruitment of prey proteins to the two distinct bait proteins was monitored in individual microstructured spots via TIRFM during pharmacological perturbation (Iso: Isoproterenol; ATP: adenosine triphosphate; F/I: forskolin+IBMX). Scale bar: 10 μm.
Agonist induced activation of G-protein coupled receptors (GPCRs) leads to the dissociation of regulatory and catalytic subunits of the cAMP dependent protein kinase A (PKA) (Wong and Scott, 2004). […]

CC(C)NCC(O)c1ccc(O)c(O)c1 (stereo not shown) [isoproterenol]
interaction between bait and prey upon addition of agonist: the interaction between bait and prey was lost

— patent US20150064713A1, “METHODS, KITS AND MEANS FOR DETERMINING INTRACELLULAR INTERACTIONS” (priority 2013, published 2015)
